This passage reports IC50, MIC and log k results from paper PMC6270026, “Antibacterial and Herbicidal Activity of Ring-Substituted 2-Hydroxynaphthalene-1-carboxanilides” (Molecules, 2013).

Each structure is given as a SMILES string. Converted amounts (≈) assume the structure as drawn.

Data set [1] has as its system photosynthetic electron transport (PET) in spinach chloroplasts. Put plainly: Inhibition of photosynthetic electron transport (PET) in spinach chloroplasts. It counts as biochemical, Spinacia oleracea L. The conditions noted are these: DCPIP photoreduction. Here is the method: Chloroplasts were prepared from spinach (Spinacia oleracea L.) according to Masarovicova and Kralova. The inhibition of photosynthetic electron transport (PET) in spinach chloroplasts was determined spectrophotometrically (Genesys 6, Thermo Electron Scientific Instruments, Madison, WI, USA), using an artificial electron acceptor 2,6-dichlorophenol-indophenol (DCPIP) according to Kralova et al., and the rate of photosynthetic electron transport was monitored as a photoreduction of DCPIP. The measurements were carried out in phosphate buffer (0.02 mol/L, pH 7.2) containing sucrose (0.4 mol/L), MgCl2 (0.005 mol/L) and NaCl (0.015 mol/L). The chlorophyll content was 30 mg/L in these experiments and the samples were irradiated (~100 W/m^2 with 10 cm distance) with a halogen lamp (250 W) using a 4 cm water filter to prevent warming of the samples (suspension temperature 22 °C). The studied compounds were dissolved in DMSO due to their limited water solubility. […] The inhibitory efficiency of the studied compounds was expressed by IC50 values, i.e., by molar concentration of the compounds causing 50% decrease in the oxygen evolution rate relative to the untreated control.

Data set [2] relates to M. smegmatis ATCC 700084. Put plainly: In vitro antimycobacterial evaluation (broth dilution MIC). Format: cell-based, Mycobacterium smegmatis. The conditions noted are these: Mycolicibacterium smegmatis, ATCC700084, 72 h; M. smegmatis ATCC 700084, 3 days, 37 °C.
The subject of data set [3] is Mycobacterium marinum CAMP 5644. The data set is described as above. The conditions noted are these: Mycobacterium marinum, CAMP5644, 504 h, M. marinum CAMP 5644, 21 days, 28 °C. Format: cell-based.
Data set [4] deals with methicillin-resistant Staphylococcus aureus SA 3202. The data set can be described thus: In vitro antibacterial susceptibility testing (broth dilution MIC). Format: cell-based. The note with it: MRSA, clinical isolate SA 3202, 24 h, 37 °C, read-out: MIC MRSA 3202. As to the method: (§1) The synthesized compounds were evaluated for in vitro antibacterial activity against representatives of multidrug-resistant bacteria, clinical isolates of methicillin-resistant Staphylococcus aureus (MRSA) 63718, SA 630 and SA 3202 that were obtained from the National Institute of Public Health, Prague, Czech Republic. Staphylococcus aureus ATCC 29213 was used as a reference and quality control strain. Ampicillin (Sigma-Aldrich) was used as the standard. Prior to testing, each strain was passaged onto nutrient agar (Oxoid, Hampshire, UK) with 5% of bovine blood, and bacterial inocula were prepared by suspending a small portion of bacterial colony in sterile phosphate buffered saline (pH 7.2–7.3). The cell density was adjusted to 0.5 McFarland units using a densitometer (Densi-La-Meter, LIAP, Riga, Latvia). The final inoculum was made by 1:20 dilution of the suspension with the Mueller-Hinton broth (MH broth). […] The final concentrations of the evaluated compounds ranging from 256 μg/mL to 0.008 μg/mL. The broth dilution micro-method modified according to NCCLS guidelines in MH broth was used to determine the minimum inhibitory concentration (MIC). Drug-free controls, sterility controls and controls consisted of MH broth and DMSO alone were included. The determination of results was performed visually after 24 h of static incubation in the darkness at 37 °C in an aerobic atmosphere. The MICs were defined as the lowest concentration of the compound at which no visible bacterial growth was observed.
(In general: Broth dilution looks for growth in wells or tubes with falling amounts of substance.)

For data set [5], the system named is methicillin-resistant Staphylococcus aureus SA 630. The data set is described as above. The note with it: MRSA, clinical isolate SA 630, 24 h, 37 °C. Format: cell-based. Here is the method: as §1
Data set [6] concerns methicillin-resistant Staphylococcus aureus (MRSA) 63718. The description is as above. Format: cell-based. The conditions noted are these: clinical isolate MRSA 63718, 24 h, 37 °C. Here is the method:
as §1

Data set [7] relates to Staphylococcus aureus ATCC 29213. Described as above. It counts as cell-based. The note with it: ATCC29213; Staphylococcus aureus ATCC 29213, 24 h, 37 °C. Here is the method:
as §1

Data set [8] relates to Mycobacterium avium subsp. paratuberculosis (CIT03). The data set can be described thus: In vitro antimycobacterial evaluation (alamarBlue MIC). Format: cell-based. The conditions noted are these: 264 h, M. avium paratuberculosis CIT03, 11 days, 37 °C. Here is the method:
A well characterised clinical isolate of Mycobacterium avium subsp. paratuberculosis (CIT03) was grown in Middlebrook broth (MB), supplemented with Oleic-Albumin-Dextrose-Catalase supplement (OADC, Becton, Dickinson & Comp., Franklin Lakes, NJ, USA) and mycobactin J (2 µg/mL). Identification of this isolate was performed using biochemical and molecular protocols. At log phase growth, a culture sample (10 mL) was centrifuged at 15,000 rpm/20 min using a bench top centrifuge (Model CR 4-12, Jouan Inc., Winchester, VA, USA). Following removal of the supernatant, the pellet was washed in fresh Middlebrook 7H9GC broth and re-suspended in fresh supplemented MB (10 mL). The turbidity was adjusted to match McFarland standard No. 1 (3 × 10^8 cfu) with MB broth. A further 1:20 dilution of the culture was then performed in MB broth. The antimicrobial susceptibility of the mycobacterial species was investigated in a 96-well plate format. In these experiments, sterile deionised water (300 µL) was added to all outer-perimeter wells of the plates to minimize evaporation of the medium in the test wells during incubation. Each evaluated compound (100 µL) was incubated with each of the mycobacterial species (100 µL). Dilutions of each compound were prepared in duplicate. For all synthesized compounds, final concentrations ranged from 1,000 µg/mL to 8 µg/mL. All compounds were prepared in DMSO and subsequent dilutions were made in supplemented MB. The plates were sealed with parafilm and incubated at 37 °C, for 11 days in the case of M. avium paratuberculosis. Following incubation, a 10% addition of alamarBlue (AbD Serotec, Kidlington, UK) was mixed into each well and readings at 570 nm and 600 nm were taken, initially for background subtraction and subsequently after 24 h re-incubation. The background subtraction is necessary for strongly coloured compounds, where the colour may interfere with the interpretation of any colour change. For non-interfering compounds, a blue colour in the well was interpreted as an absence of growth and a pink colour was scored as growth. The minimum inhibitory concentrations (MICs) were initially defined as the lowest concentration which prevented a visual colour change from blue to pink.
The MICs were defined as the lowest concentration of the compound at which no visible bacterial growth was observed. The MIC value is routinely and widely used in bacterial assays and is a standard detection limit according to the Clinical and Laboratory Standards Institute (CLSI). Isoniazid (Sigma-Aldrich) was used as reference antimycobacterial drug.
On the technique in general: Resazurin is reduced to fluorescent resorufin, in cell work by metabolically active cells.

Data set [9] relates to M. kansasii DSM 44162. The data set can be described thus: In vitro antimycobacterial evaluation (broth dilution MIC). The note with it: Mycobacterium kansasii, DSM44162, 168 h; M. kansasii DSM 44162, 7 days, 37 °C. It counts as cell-based.
The nature of data set [10]: Lipophilicity determination by RP-HPLC (capacity factor log k). Format: physicochemical. The note with it: isocratic, MeOH 60%/H2O 40%, C18. As to the method: A HPLC system Agilent 1200 equipped with DAD detector (Agilent, Santa Clara, CA, USA) was used. A chromatographic column Symmetry® C18 5 μm, 4.6 × 250 mm, Part No. WAT054275, (Waters Corp., Milford, MA, USA) was used. The HPLC separation process was monitored and evaluated by EZChrom Elite software ver. 3.3.2 (Agilent). Isocratic elution by a mixture of MeOH p.a. (60%) and H2O-HPLC Mili-Q grade (40%) as a mobile phase was used. The total flow of the column was 1.0 mL/min, injection 20 μL, column temperature 40 °C and sample temperature 10 °C. The detection wavelength 210 nm was chosen. The KI methanolic solution was used for the dead time (tD) determination. Retention times (tR) were measured in minutes. The capacity factors k were calculated according to formula k = (tR − tD)/tD, where tR is the retention time of the solute, whereas tD denotes the dead time obtained using an unretained analyte. Log k, calculated from the capacity factor k, is used as the lipophilicity index converted to log P scale.

Consider `O=C(Nc1cccc(Br)c1)c1c(O)ccc2ccccc12` [Compound 6b, N-(3-bromophenyl)-2-hydroxynaphthalene-1-carboxamide], for which half-maximal inhibition in data set [1] (IC50) was put at 61.1 µM. For the same compound, the MIC in data set [2], in data set [3], in data set [4], in data set [5], in [6] and in data set [7] was above 748 µM each time. Moreover, the MIC amounted to 731 µM (≈ 250 µg/mL) in [8] and 46.7 µM (≈ 16 µg/mL) in data set [9]. This compound also registered a log k in [10] of 0.8595.

In data set [1], `O=C(Nc1cccc(F)c1)c1c(O)ccc2ccccc12` [Compound 4b, N-(3-fluorophenyl)-2-hydroxynaphthalene-1-carboxamide] displayed an IC50 of 213 µM. Also, the MIC in [2] was above 910 µM; in [3], above 910 µM; in [4] it was 228 µM (≈ 64.1 µg/mL); in data set [5] it was above 910 µM; in data set [6], above 910 µM; in [7] it was 228 µM (≈ 64.1 µg/mL). Further, the MIC is above 889 µM in data set [8] and 114 µM (≈ 32.1 µg/mL) in [9]. In data set [10], this compound displayed a log k of 0.5025.

On to `O=C(Nc1ccc(C(F)(F)F)cc1)c1c(O)ccc2ccccc12` [Compound 7c, 2-Hydroxy-N-(4-trifluoromethylphenyl)naphthalene-1-carboxamide], for which the IC50 in data set [1] was 29 µM. Besides, the MIC in data set [2] was above 748 µM; in [3], above 748 µM; in data set [4] it was 47 µM (≈ 15.6 µg/mL); in data set [5], 94 µM (≈ 31.1 µg/mL); in data set [6], 94 µM (≈ 31.1 µg/mL); in [7], above 748 µM. The values for the MIC in data set [8] and in data set [9] were 731 µM (≈ 242 µg/mL) and 23.3 µM (≈ 7.72 µg/mL), respectively. For the same compound, the log k in data set [10] is 0.9994.

In the case of `COc1ccccc1NC(=O)c1c(O)ccc2ccccc12` [Compound 2a, 2-Hydroxy-N-(2-methoxyphenyl)naphthalene-1-carboxamide], half-maximal inhibition in data set [1] (IC50) required 477 µM. The MIC in data set [2], in [3], in [4], in data set [5], in data set [6] and in data set [7] was above 873 µM throughout. Moreover, the MIC in data set [8] was 852 µM (≈ 250 µg/mL); in [9], above 873 µM. The log k in [10] is on record as 0.5121.

On to `O=C(Nc1ccccc1F)c1c(O)ccc2ccccc12` [Compound 4a, N-(2-fluorophenyl)-2-hydroxynaphthalene-1-carboxamide], for which inhibition in [1] was half-maximal at 243 µM (IC50). Moreover, the MIC in [2] came to 228 µM (≈ 64.1 µg/mL); in [3], 228 µM (≈ 64.1 µg/mL); in [4], 455 µM (≈ 128 µg/mL); in data set [5] it was 455 µM (≈ 128 µg/mL); in data set [6], 455 µM (≈ 128 µg/mL); in [7], 228 µM (≈ 64.1 µg/mL). For the same compound, the values for the MIC in [8] and in data set [9] were 203 µM (≈ 57.1 µg/mL) and 114 µM (≈ 32.1 µg/mL), respectively. In data set [10], this compound displayed a log k of 0.5664.

For `O=C(Nc1cccc(Cl)c1)c1c(O)ccc2ccccc12` [Compound 5b, N-(3-chlorophenyl)-2-hydroxynaphthalene-1-carboxamide], the IC50 in data set [1] came out at 79.7 µM. Also, the MIC in data set [2] was 215 µM (≈ 64 µg/mL); in data set [3], above 860 µM; in [4], 107 µM (≈ 31.9 µg/mL); in data set [5] it was above 860 µM; in data set [6] it was above 860 µM; in data set [7], above 860 µM. The MIC in data set [8] worked out at 840 µM (≈ 250 µg/mL); in [9] it was 53.7 µM (≈ 16 µg/mL). Moreover, the log k in data set [10] worked out at 0.7904.

In [1], `O=C(Nc1ccc(Br)cc1)c1c(O)ccc2ccccc12` [Compound 6c, N-(4-bromophenyl)-2-hydroxynaphthalene-1-carboxamide] had an IC50 of 102 µM. Moreover, the MIC was 187 µM (≈ 64 µg/mL) in [2]; 187 µM (≈ 64 µg/mL) in [3]; 94.1 µM (≈ 32.2 µg/mL) in data set [4]; 47 µM (≈ 16.1 µg/mL) in data set [5]; 187 µM (≈ 64 µg/mL) in data set [6]; 47 µM (≈ 16.1 µg/mL) in data set [7]. For the same compound, the values for the MIC in [8] and in data set [9] were 175 µM (≈ 59.9 µg/mL) and 93.5 µM (≈ 32 µg/mL), respectively. In addition, the log k in data set [10] is listed as 0.8790.

As usually defined, the IC50 is the concentration that gives 50% inhibition. Lower therefore signals higher potency. One may read the MIC as the lowest concentration that inhibits growth of the organism.
